Results from US20210122763A1, “OGA INHIBITOR COMPOUNDS” (Janssen Pharmaceutica NV, priority 2018, published 2021).

What was measured:
[1] = molecular target: T1, OGA (Homo sapiens, UniProt O60502); assay: OGA cellular assay (ICC detection of O-GlcNAcylated proteins in HEK293 cells inducible for P301L mutant human Tau); assay type: cell-based; conditions: 6 hours incubation; for Emax: HEK293, HEK293 cells inducible for P301L mutant human Tau, maximum = Thiamet G 200 uM; for EC50: HEK293 cells inducible for P301L mutant human Tau, read-out: Cellular hOGA, pEC50 (converted)
T1 construct: HEK293 cells inducible for P301L mutant human Tau (isoform 2N4R) were established at Janssen; endogenous in cells; host or cells: HEK293 cells inducible for P301L mutant human Tau (2N4R)
T1 sequence (O60502 1-916): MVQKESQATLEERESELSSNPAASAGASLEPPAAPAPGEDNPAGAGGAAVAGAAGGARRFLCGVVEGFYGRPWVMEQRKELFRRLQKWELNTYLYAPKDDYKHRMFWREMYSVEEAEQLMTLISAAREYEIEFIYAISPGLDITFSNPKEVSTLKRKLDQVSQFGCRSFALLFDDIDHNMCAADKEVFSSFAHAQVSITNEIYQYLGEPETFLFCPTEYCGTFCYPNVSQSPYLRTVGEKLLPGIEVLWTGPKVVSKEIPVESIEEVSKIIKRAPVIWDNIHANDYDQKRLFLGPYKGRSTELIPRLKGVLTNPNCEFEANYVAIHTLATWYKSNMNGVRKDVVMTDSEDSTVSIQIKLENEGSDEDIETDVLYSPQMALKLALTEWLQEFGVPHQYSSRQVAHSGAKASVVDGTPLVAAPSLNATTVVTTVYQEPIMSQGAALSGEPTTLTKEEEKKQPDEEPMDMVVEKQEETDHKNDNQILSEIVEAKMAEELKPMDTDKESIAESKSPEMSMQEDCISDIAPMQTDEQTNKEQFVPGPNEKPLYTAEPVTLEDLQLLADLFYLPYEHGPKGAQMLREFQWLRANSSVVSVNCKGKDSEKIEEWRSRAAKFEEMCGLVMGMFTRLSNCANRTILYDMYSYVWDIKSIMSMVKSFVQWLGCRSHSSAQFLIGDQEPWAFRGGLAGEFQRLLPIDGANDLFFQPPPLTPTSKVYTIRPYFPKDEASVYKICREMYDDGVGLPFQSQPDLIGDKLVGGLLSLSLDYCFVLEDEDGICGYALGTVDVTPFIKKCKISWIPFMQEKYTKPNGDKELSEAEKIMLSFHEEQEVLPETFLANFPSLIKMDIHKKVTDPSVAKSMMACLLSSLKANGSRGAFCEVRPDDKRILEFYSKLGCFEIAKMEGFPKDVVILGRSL
Procedure, shortened: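 HEK293 cells with inducible P301L 2N4R Tau, seeded in low-glucose medium, were exposed to compounds for 6 hours (0.2% DMSO), then PFA-fixed and stained with CTD110.6. Imaging intensity at 488 nm measured O-GlcNAcylation, with Hoechst nuclei counts for toxicity. IC50s came from non-linear regression, with Thiamet G at 200 uM as maximum inhibition.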

[2] = molecular target: T2, recombinant human Meningioma Expressed Antigen 5 (MGEA5), also referred to as O-GlcNAcase (OGA) (Homo sapiens, UniProt O60502); assay: OGA biochemical assay (inhibition of FM-GlcNAc hydrolysis, fluorescence); conditions: for Emax: read-out: Enzymatic Emax (%); for IC50: read-out: Enzymatic hOGA, pIC50 (converted)
T2 construct: Full length OGA enzyme was purchased at OriGene (cat #TP322411); purchased OriGene TP322411
T2 sequence (O60502 1-916): T1 sequence (O60502 1-916)
Procedure, shortened: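 Full-length OGA at 2 nM was pre-incubated 60 min at room temperature with compound, then FM-GlcNAc at 100 uM final was added in citrate/phosphate buffer pH 7.2 with 0.005% Tween-20. After 6 h at room temperature, carbonate pH 11.0 stopped the reaction. Fluorescence read at 485/538 nm; IC50 and Hill coefficient from curve fit against no-inhibitor and saturating-standard controls.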

Row | Emax [1] [%] | EC50 [1] [nM] | Emax [2] [%] | IC50 [2] [nM] | Structure (SMILES)
1 | 47 | 501 | 94 | 200 | COc1cnccc1OC1CCN(C(C)c2ccc3c(n2)OCCO3)CC1 (stereo not shown) [Compound 98]
2 | 34 | > 1000 | 98 | 158 | COc1ccc(OC2CCN(C(C)c3ccc4c(n3)OCCO4)CC2)nc1 (stereo not shown) [Compound 99]
3 | 53 | 501 | 94 | 100 | Cc1cc(OC2CCN(C(C)c3ccc4c(n3)OCCO4)CC2)ncc1C#N (stereo not shown) [Compound 101]
4 | 10 | > 1000 | 95 | 501 | COc1cc(C#N)cnc1OC1CCN(C(C)c2ccc3c(n2)OCCO3)CC1 (stereo not shown) [Compound 102]
5 | 52 | – | 97 | 79.4 | COc1cc(OC2CCN(C(C)c3ccc4c(n3)OCCO4)CC2)ncc1C#N (stereo not shown) [Compound 103]
6 | 12 | > 1000 | 95 | 631 | CC(c1ccc2c(n1)OCCO2)N1CCC(Oc2ccncc2C#N)CC1 (stereo not shown) [Compound 104]
7 | 16 | > 1000 | 97 | 398 | CC(c1ccc2c(n1)OCCO2)N1CCC(Oc2ncc(C#N)cc2F)CC1 (stereo not shown) [Compound 105]
8 | 51 | 631 | 96 | 158 | C[C@@H](c1ccc2c(n1)OCCO2)N1CCC(Oc2ccc(C#N)nn2)CC1 [Compound 107]
9 | 15 | > 1000 | 101 | 631 | COc1nccnc1OC1CCN(C(C)c2ccc3c(n2)OCCO3)CC1 (stereo not shown) [Compound 108]
10 | 77 | 200 | 99 | 12.6 | Cc1cncc(OC2CCN(C(C)c3nc4c(cc3F)OCCO4)CC2)n1 (stereo not shown) [Compound 109]
11 | 79 | 100 | 101 | 7.94 | Cc1ncc(OC2CCN(C(C)c3nc4c(cc3F)OCCO4)CC2)nc1C (stereo not shown) [Compound 110]
12 | 77 | 200 | 98 | 50.1 | Cc1nccnc1OC1CCN(C(C)c2nc3c(cc2F)OCCO3)CC1 (stereo not shown) [Compound 111]
13 | 31 | > 1000 | 97 | 316 | CC(c1ccc2c(n1)OCCO2)N1CCC(Oc2cnc(C(F)(F)F)cn2)CC1 (stereo not shown) [Compound 114]
14 | 25 | > 1000 | 96 | 200 | CC(c1ccc2c(n1)OCCO2)N1CCC(Oc2ccc(F)cn2)CC1 (stereo not shown) [Compound 115]
15 | 42 | > 1000 | 96 | 126 | Cc1ncccc1OC1CCN(C(C)c2ccc3c(n2)OCCO3)CC1 (stereo not shown) [Compound 116]
16 | 68 | 331 | 100 | 63.1 | CC(C)c1ncc(OC2CCN(C(C)c3ccc4c(n3)OCCO4)CC2)cn1 (stereo not shown) [Compound 119]
17 | 87 | 251 | 98 | 50.1 | CC(c1ccc2c(n1)OCCO2)N1CCC(Oc2cnc(C3CC3)nc2)CC1 (stereo not shown) [Compound 120]
18 | 59 | 398 | 96 | 100 | Cc1cc(OC2CCN(C(C)c3ccc4c(n3)OCCO4)CC2)c(F)c(C)n1 (stereo not shown) [Compound 121]

The remaining lines, values behind:

Row | Structure (SMILES) | Emax [1] [%] | EC50 [1] [nM] | Emax [2] [%] | IC50 [2] [nM]
19 | Cc1cc(OC2CCN(C(C)c3nc4c(cc3F)OCCO4)CC2)c(Cl)c(C)n1 (stereo not shown) [Compound 65] | 101 | 63.1 | 99 | 12.6
20 | Cc1cc(OC2CCN(C(C)c3ccc4c(n3)OCCO4)CC2)c(Cl)c(C)n1 (stereo not shown) [Compound 66] | 73 | 251 | 96 | 79.4
21 | CC(c1ccc2c(n1)OCCO2)N1CCC(Oc2cnc(Cl)nc2)CC1 (stereo not shown) [Compound 67] | 60 | 631 | 102 | 126
22 | CC(c1ccc2c(n1)OCCO2)N1CCC(Oc2ccc(C(F)(F)F)nc2)CC1 (stereo not shown) [Compound 68] | 57 | 794 | 94 | 79.4
23 | CC(c1ccc2c(n1)OCCO2)N1CCC(Oc2cnc(Cl)c(F)c2)CC1 (stereo not shown) [Compound 69] | 68 | 501 | 95 | 79.4
24 | Cc1cccnc1OC1CCN(C(C)c2ccc3c(n2)OCCO3)CC1 (stereo not shown) [Compound 70] | 46 | > 1000 | 98 | 398
25 | Cc1cc(C)nc(OC2CCN(C(C)c3ccc4c(n3)OCCO4)CC2)c1 (stereo not shown) [Compound 71] | 35 | > 1000 | 100 | 126
26 | COc1cc(OC2CCN(C(C)c3ccc4c(n3)OCCO4)CC2)ccn1 (stereo not shown) [Compound 72] | 60 | 251 | 101 | 31.6
27 | Cc1cc(CC2(F)CCN(C(C)c3ccc4c(n3)OCCO4)CC2)cc(C)n1 (stereo not shown) [Compound 73] | 18 | > 1000 | 90 | 2000
28 | CC(c1ccc2c(n1)OCCO2)N1CCC(Oc2cncc(F)c2)CC1 (stereo not shown) [Compound 74] | 44 | > 1000 | 99 | 100
29 | Cc1cc(OCC2CCN(C(C)c3ccc4c(n3)OCCO4)CC2)cc(C)n1 (stereo not shown) [Compound 75] | 39 | > 1000 | 99 | 398
30 | Cc1cnnc(OC2CCN(C(C)c3ccc4c(n3)OCCO4)CC2)c1 (stereo not shown) [Compound 77] | 35 | > 1000 | 97 | 200
31 | Cc1cc(NC2CCN(C(C)c3ccc4c(n3)OCCO4)CC2)cc(C)n1 (stereo not shown) [Compound 78] | 55 | 813 | 99 | 100
32 | COc1cc(OC2CCN(C(C)c3nc4nc(C)sc4cc3F)CC2)cc(C)n1 (stereo not shown) [Compound 79] | 72 | 39.8 | 101 | 3.16
33 | Cc1cnc(OC2CCN(C(C)c3nc4c(cc3F)OCCO4)CC2)c(C)n1 (stereo not shown) [Compound 84] | 73 | 316 | 101 | 15.8
34 | Cc1cnc(C)c(OC2CCN(C(C)c3nc4c(cc3F)OCCO4)CC2)n1 (stereo not shown) [Compound 87] | 62 | 355 | 97 | 15.8
35 | Cc1cc(C)c(OC2CCN(C(C)c3nc4c(cc3F)OCCO4)CC2)nn1 (stereo not shown) [Compound 88] | 59 | 501 | 98 | 100
36 | Cc1cc(COC2CCN(C(C)c3ccc4c(n3)OCCO4)CC2)cc(C)n1 (stereo not shown) [Compound 89] | 63 | ~501 | 97 | 126
37 | CC(c1nc2c(cc1F)OCCO2)N1CCC(Oc2ccc(C#N)nn2)CC1 (stereo not shown) [Compound 92] | 66 | 126 | 97 | 25.1
38 | CC(c1ccc2c(n1)OCCO2)N1CCC(Oc2cc[nH]c(=O)c2)CC1 (stereo not shown) [Compound 93] | 34 | > 1000 | 98 | 251
39 | Cc1ccc(OC2CCN(C(C)c3nc4c(cc3F)OCCO4)CC2)cn1 (stereo not shown) [Compound 94] | 82 | 95.5 | 96 | 10
40 | CC(c1ccc2c(n1)OCCO2)N1CCC(Oc2ccc(OC(F)(F)F)cn2)CC1 (stereo not shown) [Compound 96] | 41 | > 1000 | 99 | 63.1
41 | Cc1cc(C#N)cnc1OC1CCN(C(C)c2ccc3c(n2)OCCO3)CC1 (stereo not shown) [Compound 97] | 20 | > 1000 | 94 | 398
